The subject of one data set is T2 cells. Put plainly: Chromium release assay: reconstitution of epitopes on peptide-pulsed T2 cells for HLA-A2.1-restricted melanoma-specific CTL. The conditions noted are these: for % specific release (of Cr-51), no CTL: T2 + peptide 1 μM; for reconstitution of recognition by CTL lines from 3 additional patients: 946 at 0.1–1 nM, other peptides at equal or higher concentrations, FIG. 12; for effect on epitope reconstitution: VMM5 and DM204-13 CTL, concentrations up to 10 nM; for number of CTL lines/patients recognizing the peptide: HLA-A2.1 restricted melanoma specific CTL lines. On the procedure: Cell-mediated killing was determined in vitro using a 4-h chromium release assay. 51Cr-labeled target cells were plated at 2×10^3 cells/well in triplicate on 96-well V-bottom plates (Costar, Cambridge, Mass.) with varying numbers of effector cells in a final volume of 250 microl. Wells containing either culture medium and target cells only or 1 M HCl and target cells served as background 51Cr release controls and total release controls, respectively. The plates were centrifuged at 100×g for 3 min and incubated at 37° C. in 5% CO2 for 4 h. The plates were again centrifuged, and 0.20 ml of medium from each well was removed for counting in a gamma counter. The cytotoxic index was calculated as: Cpm(experimental)−cpm(background)×100% Cpm(total release)−cpm(background) Lytic units were calculated for several of the cytotoxicity assays, using a software package prepared by the National. Cancer Institute (Bethesda, Md.), which solves for the equation y=A×[1−exp(−kx)], where x is the E:T ratio, y is the cytotoxic index, A is the curve maximum, and k is a constant used to calculate the slope of the best fit line. For the purposes of this study, a lytic unit was defined as the number of effector cells needed to mediate […] lysis of target cells. The number of lytic units was calculated per 10^5 effector cells (LU30 per 10^5 cells).
Effector cells were added in 100 microl assay medium to give an E:T ratio of 10:1, and were incubated at 37° C. The remainder of the assay is performed as in standard chromium release assays described above. Wells containing peptide and target cells but no CTL were used as controls to rule out toxicity of the peptides themselves.
HLA-A2.1 molecules were immunoaffinity purified from detergent lysates of the human melanoma cell line DM6. The associated peptides were released by acid extraction, separated from HLA-A2.1 and antibody by filtration, and fractionated by multiple stages of HPLC. […] L. Slingluff Jr., et al, J. Immunol. […] In FIG. 8B Fractions 2 and 3 from the separation shown in panel A were pooled and rechromatographed with a 55 minute gradient of 0 to 30% acetonitrile/0.1% heptafluorobutyric acid (HFBA) in 0.1% HFBA, collecting one-minute fractions. For both panels, peptide: fractions were incubated for 2–3h with 2×10^3 51Cr-labelled T2 cells in […] assay media per well in 96-well plates.
CTL lines VMM5 and VMM6 were generated by stimulation with autologous tumor. VMM5 CTL were maintained on allogeneic. A2.1+melanoma DM6 after specificity was obtained, C. L. Slingluff Jr. et al., J. Immunol. […] DM169-13 and DM204-13 CTL were generated by stimulation with allogeneic A2.1+melanoma DM13, N. J. Crowley et al., J. Immunol. […] LD1 CTL were stimulated on a rotating schedule of stimulating allogeneic A2.1+melanomas DM6, DM13, and DM93. DM93 is an HLA-A2.1+melanoma used as a positive control. […] T2 cells were preincubated with the peptides whose (M+H)^+ values are indicated in the legend, FIG. 12. […] Asterisks (*) mark peptides not evaluated.

For a further data set, the system named is VMM12-EBV. Put plainly: Screen of Pmel-17/gp100 peptides for sensitizing VMM12-EBV cells for lysis by VMM18 CTL. The class given is cell-based, human. The conditions noted are these: Table 102 (not given).
For another data set, the system named is VMM12 CTL. Put plainly: Recognition of Pmel-17 peptide by VMM12 CTL. Type of data set: cell-based, human. An excerpt:
However, VMM12 CTL do recognize and lyse VMM18 melanoma cells. Because the only Class I MHC molecule shared by VMM12 and VMM18 is HLA-A3, it is evident that at least one additional shared CTL epitope is expressed by both of these tumors.

The next data set relates to T2-A3 cells. Type of data set: cell-based, human.
Data set [1] concerns C1R-A1 cells. Kind of data set: Chromium release assay: peptide-pulsed C1R-A1 cells, VMM12 CTL. Type of data set: cell-based, human. The conditions noted are these: C1R-A1 pulsed with 1 to 0.03 uM peptide; FIG. 23.
In data set [2] the test system is C1R-A1 cells. Kind of data set: Chromium release assay: peptide-pulsed C1R-A1 cells, VMM15 CTL. The class given is cell-based, human. The conditions noted are these: for reconstitution of an epitope for VMM15 CTL: C1R-A1 pulsed with 10 uM, 1 uM and 0.1 uM peptide, FIG. 22.
Data set [3] concerns tyrosinase specific CTL clone IVSB. Put plainly: Sensitization of target cells for lysis by tyrosinase specific CTL clone IVSB. Type of data set: cell-based, human. An excerpt: T. Wolfei, et. al., Eur. J. Immuno. 24, 759 (1994). […] Even when target cells were pretreated with the monoclonal antibody MA2.1 in order to facilitate exogenous peptide binding to HLA-A2.1. T. Wolfei, et al., Eur. J. Immunol.

[4] abbreviates: T2-A3, VMM18 CTL, FIG. 18, read-out: half maximal lysis.
The mark [5] stands for this setting: CTL clone IVSB, read-out: half maximal lysis.

“Also recorded” adds a separate entry of the source. Read-outs that look alike come from different tables or passages of the source. Where no end group is shown, it is not given here. Bounds are passed on as bounds.

In the case of `CC[C@H](C)[C@H](NC(=O)[C@@H](N)Cc1ccc(O)cc1)C(=O)N[C@@H](CCC(=O)O)C(=O)N1CCC[C@H]1C(=O)NCC(=O)N1CCC[C@H]1C(=O)N[C@H](C(=O)N[C@H](C(=O)N[C@@H](C)C(=O)O)[C@@H](C)O)C(C)C` [946I], in the data set with T2 cells, the “% specific release (of Cr-51), no CTL” value is 0.1%.
The same measure, in the same setting: with `CC(C)C[C@H](NC(=O)[C@@H](N)Cc1ccc(O)cc1)C(=O)N[C@@H](CCC(=O)O)C(=O)N1CCC[C@H]1C(=O)NCC(=O)N1CCC[C@H]1C(=O)N[C@H](C(=O)N[C@H](C(=O)N[C@@H](C)C(=O)O)[C@@H](C)O)C(C)C` [946L] the figure was -1.4%.
For ALLAVGATK [SEQ ID NO:98], in the data set on VMM12-EBV, the “sensitization of VMM12-EBV for lysis by VMM18 CTL” value is “sensitized VMM12-EBV for lysis by VMM18 CTL”. Moreover, the “recognition by CTL from patient VMM12” value in the data set on VMM12 CTL is “not recognized”. Besides, the EC50 was 1 to 10 nM in the data set on T2-A3 cells (setting [4]) and approximately 10 nM in the data set on T2-A3 cells (read-out: half-maximal lysis of T2 cells expressing HLA-A3).
As for “Ala-Xaa-Tyr-Asp-Ala-Thr-Tyr-Glu-Thr, wherein Xaa=Leu or Ile [compound 1046]”, in the data set with T2 cells, the “reconstitution of recognition by CTL lines from 3 additional patients” value (from here on “reconstitution of recognition”) is given as “neither 864 nor 1046 had any detectable activity” and the “effect on epitope reconstitution” value is on record as “no effect”.
In the case of “DAEKCDICTDEY (cysteine pairing not given here) [SEQ ID NO:101]”, the “reconstitution of an epitope for VMM12 CTL” value in the data set on C1R-A1 cells [1] is “reconstituted an epitope for these VMM12 CTL, although weakly”. In addition, the “reconstitution of an epitope for VMM15 CTL” value in the data set on C1R-A1 cells [2] is listed as “also recognized; also recorded: reconstituted”.
For “EKCDICTDEY (cysteine pairing not given here) [SEQ ID NO:102]”, the “reconstitution of an epitope for VMM15 CTL” value in the data set on C1R-A1 cells [2] is on record as “also recognized; also recorded: reconstituted”.
KCDICTDEY [SEQ ID NO:93]: the half-maximal lysis entry in the data set on C1R-A1 cells [2] is “approximately 1 ug/ml”. Further, the “reconstitution of an epitope for VMM15 CTL” value is listed as “most effective, even at the lowest concentration tested; also recorded: reconstituted” with C1R-A1 cells [2] and “reconstitutes an epitope for VMM15 CTL” with C1R-A1 cells [2] (listed as KCDICTDEY). Besides, the EC50 in the data set with C1R-A1 cells [2] (read-out: half-maximal lysis) was approximately 1000 nM.
With LLAVGATK [SEQ ID NO:4], in the data set on VMM12-EBV, the “sensitization of VMM12-EBV for lysis by VMM18 CTL” value is given as “sensitized VMM12-EBV for lysis by VMM18 CTL”. Also, the EC50 in the data set with T2-A3 cells (setting [4]) is more than 1000 nM.
In the case of SMAPGNTSV [compound 864], in the data set with T2 cells, the “reconstitution of recognition” value is “neither 864 nor 1046 had any detectable activity” and the “effect on epitope reconstitution” value was “no effect”.
Turning to “Tyr Xaa Glu Pro Gly Pro Val Thr Ala (YXEPGPVTA; not fully specified; X: randomised place (mixture)) [compound 946]”, in the data set on T2 cells, the “reconstitution of recognition” value was “reconstituted recognition by each of these 3 lines” and the “number of CTL lines/patients recognizing the peptide” value was 5 out of 5. The EC50 in the data set on T2 cells (read-out: half-maximal lysis, dose response curves, two of the 3 additional CTL lines) lay in the range of 0.001 to 0.01 nM. In the data set with T2 cells (read-out: half-maximal lysis, other assays), the EC50 was 0.001 nM.
Take “Tyr met Asn Gly Thr Met Ser Gln Val [SEQ ID NO:94]”: the “number of CTL lines/patients recognizing the peptide” value in the data set with T2 cells is “None of 4”. Also, the EC50 in data set [3] (setting [5]) was 10000 nM; in data set [3] (target cells pretreated with monoclonal antibody MA2.1, read-out: concentration required to give half-maximal target cell lysis), more than 1000 nM.
As to YMDGTMSQV [SEQ ID NO:9], the EC50 in data set [3] (setting [5]) was 100 nM.

The values are drawn from patent US7019112B1, “Peptides recognized by melanoma-specific A1-, A2- and A3-restricted cytoxic lymphocytes, and uses therefor” (University of Virginia Patent Foundation, priority 1996, dated 2006).
